Values joined by “and” are separate entries in the source; they are usually repeats but may differ in a detail not shown here. Equal values may be shown once.
Experiment: xn = mol fraction of the nth substance listed

CN(C)C=O + CO
Settings	viscosity
293.15 K, 101 kPa, x2 = 0.0998	0.835 mPa·s
293.15 K, 101 kPa, x2 = 0.2	0.809 mPa·s
293.15 K, 101 kPa, x2 = 0.3	0.782 mPa·s
293.15 K, 101 kPa, x2 = 0.4002	0.754 mPa·s
293.15 K, 101 kPa, x2 = 0.5	0.723 mPa·s
293.15 K, 101 kPa, x2 = 0.6	0.693 mPa·s
293.15 K, 101 kPa, x2 = 0.6997	0.665 mPa·s
293.15 K, 101 kPa, x2 = 0.8	0.64 mPa·s
293.15 K, 101 kPa, x2 = 0.8998	0.613 mPa·s
298 K, 101.3 kPa, x2 = 0.1198	0.766 mPa·s
298 K, 101.3 kPa, x2 = 0.2267	0.739 mPa·s
298 K, 101.3 kPa, x2 = 0.4094	0.693 mPa·s
298 K, 101.3 kPa, x2 = 0.5596	0.655 mPa·s
298 K, 101.3 kPa, x2 = 0.6854	0.623 mPa·s
298 K, 101.3 kPa, x2 = 0.7922	0.596 mPa·s
298 K, 101.3 kPa, x2 = 0.884	0.573 mPa·s
298 K, 101.3 kPa, x2 = 0.9639	0.553 mPa·s
298.15 K, 101 kPa, x1 = 0.3048	0.568 mPa·s
298.15 K, 101 kPa, x2 = 0.0998	0.782 mPa·s
298.15 K, 101 kPa, x2 = 0.2	0.758 mPa·s
298.15 K, 101 kPa, x2 = 0.3	0.734 mPa·s
298.15 K, 101 kPa, x2 = 0.4002	0.705 mPa·s
298.15 K, 101 kPa, x2 = 0.5	0.678 mPa·s
298.15 K, 101 kPa, x2 = 0.6	0.649 mPa·s
298.15 K, 101 kPa, x2 = 0.6997	0.622 mPa·s
298.15 K, 101 kPa, x2 = 0.8	0.596 mPa·s
298.15 K, 101 kPa, x2 = 0.8998	0.572 mPa·s
303.15 K, 101 kPa, x1 = 0.0995	0.5458 mPa·s
303.15 K, 101 kPa, x1 = 0.2004	0.5714 mPa·s
303.15 K, 101 kPa, x1 = 0.3004	0.5986 mPa·s
303.15 K, 101 kPa, x1 = 0.3993	0.6269 mPa·s
303.15 K, 101 kPa, x1 = 0.5008	0.6547 mPa·s
303.15 K, 101 kPa, x1 = 0.5728	0.6716 mPa·s
303.15 K, 101 kPa, x1 = 0.6998	0.7023 mPa·s
303.15 K, 101 kPa, x1 = 0.8014	0.7263 mPa·s
303.15 K, 101 kPa, x1 = 0.8996	0.7515 mPa·s
303.15 K, 101 kPa, x2 = 0.0998	0.736 mPa·s
303.15 K, 101 kPa, x2 = 0.2	0.713 mPa·s
303.15 K, 101 kPa, x2 = 0.3	0.688 mPa·s
303.15 K, 101 kPa, x2 = 0.4002	0.663 mPa·s
303.15 K, 101 kPa, x2 = 0.5	0.674 mPa·s and 0.636 mPa·s
303.15 K, 101 kPa, x2 = 0.6	0.608 mPa·s
303.15 K, 101 kPa, x2 = 0.6997	0.584 mPa·s
303.15 K, 101 kPa, x2 = 0.8	0.559 mPa·s
303.15 K, 101 kPa, x2 = 0.8998	0.534 mPa·s
308.15 K, 101 kPa, x1 = 0.0995	0.5094 mPa·s
308.15 K, 101 kPa, x1 = 0.2004	0.5345 mPa·s
308.15 K, 101 kPa, x1 = 0.3004	0.5606 mPa·s
308.15 K, 101 kPa, x1 = 0.3993	0.5882 mPa·s
308.15 K, 101 kPa, x1 = 0.5008	0.6152 mPa·s
308.15 K, 101 kPa, x1 = 0.5728	0.6314 mPa·s
308.15 K, 101 kPa, x1 = 0.6998	0.6621 mPa·s
308.15 K, 101 kPa, x1 = 0.8014	0.6853 mPa·s
308.15 K, 101 kPa, x1 = 0.8996	0.7087 mPa·s
313.15 K, 101 kPa, x1 = 0.0995	0.4776 mPa·s
313.15 K, 101 kPa, x1 = 0.2004	0.5008 mPa·s
313.15 K, 101 kPa, x1 = 0.3004	0.5259 mPa·s
313.15 K, 101 kPa, x1 = 0.3993	0.5524 mPa·s
313.15 K, 101 kPa, x1 = 0.5008	0.5781 mPa·s
313.15 K, 101 kPa, x1 = 0.5728	0.5933 mPa·s
313.15 K, 101 kPa, x1 = 0.6998	0.6213 mPa·s
313.15 K, 101 kPa, x1 = 0.8014	0.644 mPa·s
313.15 K, 101 kPa, x1 = 0.8996	0.667 mPa·s
313.15 K, 101 kPa, x2 = 0.0998	0.655 mPa·s
313.15 K, 101 kPa, x2 = 0.2	0.635 mPa·s
313.15 K, 101 kPa, x2 = 0.3	0.612 mPa·s
313.15 K, 101 kPa, x2 = 0.4002	0.589 mPa·s
313.15 K, 101 kPa, x2 = 0.5	0.58 mPa·s and 0.565 mPa·s
313.15 K, 101 kPa, x2 = 0.6	0.54 mPa·s
313.15 K, 101 kPa, x2 = 0.6997	0.517 mPa·s
313.15 K, 101 kPa, x2 = 0.8	0.493 mPa·s
313.15 K, 101 kPa, x2 = 0.8998	0.47 mPa·s
318.15 K, 101 kPa, x1 = 0.0995	0.4467 mPa·s
318.15 K, 101 kPa, x1 = 0.2004	0.4692 mPa·s
318.15 K, 101 kPa, x1 = 0.3004	0.4936 mPa·s
318.15 K, 101 kPa, x1 = 0.3993	0.5191 mPa·s
318.15 K, 101 kPa, x1 = 0.5008	0.5439 mPa·s
318.15 K, 101 kPa, x1 = 0.5728	0.5587 mPa·s
318.15 K, 101 kPa, x1 = 0.6998	0.5861 mPa·s
318.15 K, 101 kPa, x1 = 0.8014	0.6075 mPa·s
318.15 K, 101 kPa, x1 = 0.8996	0.6304 mPa·s
323.15 K, 101 kPa, x1 = 0.0995	0.4174 mPa·s
323.15 K, 101 kPa, x1 = 0.2004	0.4387 mPa·s
323.15 K, 101 kPa, x1 = 0.3004	0.4617 mPa·s
323.15 K, 101 kPa, x1 = 0.3993	0.4864 mPa·s
323.15 K, 101 kPa, x1 = 0.5008	0.51 mPa·s
323.15 K, 101 kPa, x1 = 0.5728	0.5243 mPa·s
323.15 K, 101 kPa, x1 = 0.6998	0.5501 mPa·s
323.15 K, 101 kPa, x1 = 0.8014	0.5705 mPa·s
323.15 K, 101 kPa, x1 = 0.8996	0.5923 mPa·s
323.15 K, 101 kPa, x2 = 0.0998	0.588 mPa·s
323.15 K, 101 kPa, x2 = 0.2	0.569 mPa·s
323.15 K, 101 kPa, x2 = 0.3	0.549 mPa·s
323.15 K, 101 kPa, x2 = 0.4002	0.528 mPa·s
323.15 K, 101 kPa, x2 = 0.5	0.503 mPa·s and 0.506 mPa·s
323.15 K, 101 kPa, x2 = 0.6	0.483 mPa·s
323.15 K, 101 kPa, x2 = 0.6997	0.46 mPa·s
323.15 K, 101 kPa, x2 = 0.8	0.438 mPa·s
323.15 K, 101 kPa, x2 = 0.8998	0.415 mPa·s

Source: the CheMixHub viscosity set
